# Experimental data as given in US11229714B2, “Electrochemical reduction or prevention of infections” (WASHINGTON STATE UNIVERSITY, priority 2015, dated 2022).
# Tests used:
# [1] = tested on: Acinetobacter baumannii biofilms; experiment: In vitro A. baumannii biofilm viable cell count (CFU, drop-plate); assay type: cell-based
# Protocol: Acinetobacter baumannii biofilms were used to test efficacy of the e-scaffold. An overnight culture of Acinetobacter baumannii (ATCC #BAA-1605) was grown in full-strength Luria Broth (LB) medium (Sigma-Aldrich, catalog #L3522) and was re-suspended in 5% LB medium (OD600≈0.5). […] After 2 hours of initial attachment, the bacterial suspension was removed and the biofilms were washed twice to remove planktonic cells and then refreshed with 5% LB medium. Biofilms were allowed to develop for 24 hours. Before the e-scaffolds were applied, the bulk liquid was refreshed.
# E-scaffolds were sterilized by autoclaving (121° C., 15 min) and were saturated with sterilized liquid medium before being applied to existing Acinetobacter baumannii biofilms. The scaffolds were then polarized at −600 mVAg/AgCl for 24 hours, after which biofilms were processed for the quantification of viable cells by scraping the e-scaffold and biofilms from the glass surfaces of the petri dish into 5 ml of LB medium (1 g/L). The suspensions were centrifuged, and the resulting cell pellet was re-suspended in 1 ml of LB medium (1 g/L), and serial dilutions were prepared. Colony-forming units (“CFU”) were counted using a drop-plate count method. […]
# To test whether H2O2 can remove biofilms in vitro and from infected porcine explants, exogenous H2O2 (VWR, Catalog #RC3819-16, adjusted to a concentration similar to that produced by the e-scaffold) was added to Acinetobacter baumannii biofilms. […] First, the biofilms were exposed to the total calculated amount of H2O2 in a single administration. […]
# Catalase (Sigma-Aldrich, catalog #C1345) was added to an Acinetobacter baumannii biofilm and measured protection against H2O2 produced by the e-scaffold. Prior to addition, the H2O2 decomposition rate per unit of catalase was determined from H2O2 microelectrode measurements. The total amount of catalase required per min for complete decomposition of H2O2 was calculated based on the rate of H2O2 generation by the e-scaffold. To ensure complete H2O2 decomposition, catalase was added in excess of the calculated value (5×=0.05 mg/ml). […]
# [2] = tested on: P. aeruginosa PAO1 biofilm cells; experiment: Intracellular hydroxyl free radical formation (HPF fluorescence); assay type: cell-based, Pseudomonas aeruginosa; conditions: treated vs untreated biofilm cells
# Protocol: Intracellular hydroxyl free radical (OH•) formation was detected using 5 μM of a fluorescent reporter dye, 3′-(p-hydroxyphenyl fluorescein) (HPF). […] The samples were centrifuged (10,000×g for 10 min), and then the medium was replaced with a final concentration of 5 μM HPF prepared in 500 μL of 0.1 M PBS. After staining in the dark at room temperature for 15 minutes, samples were centrifuged at 10,000×g for 10 min. Supernatant was removed, and cells were rinsed and re-suspended with PBS. An aliquot (100 μL) was added to each well in a 96-well plate, and fluorescence intensity was quantified using a microplate reader with excitation at 490 and emission at 515 nm. For the OH• formation assays, fluorescence was estimated as ((Fluorescence with dye− Fluorescence without dye)/(Fluorescence without dye))*(100).
# [3] = tested on: P. aeruginosa PAO1 biofilm cells; experiment: SEM imaging of biofilm cells; assay type: cell-based, Pseudomonas aeruginosa; conditions: 24 h treatment
# Protocol: For SEM imaging, biofilms were grown for 24 hours on UV-sterilized, 0.22 μm type GV membrane filters placed in sterile 6-well plates. Exogenous H2O2 was added continuously at an average 0.008 mmol/h for 24 hours to mimic the e-scaffold generated H2O2 treatment. After treatment for 24 hours, both e-scaffolds and membrane filters with biofilms were aseptically collected from the untreated, e-scaffold treated, and exogenous H2O2 treated wells. The membrane filters and e-scaffolds were fixed overnight with 2.5% glutaraldehyde and 2% paraformaldehyde in 0.1 M phosphate buffer, followed by rinsing with 0.1 M phosphate buffer. The membranes and e-scaffolds were then dehydrated gradually by being washed sequentially with 10%, 30%, 50%, 70%, and 95% alcohol (10 min each) and 100% alcohol (3×10 min each). Samples were then sputter-coated with gold prior to field emission in-lens scanning electron microscopy imaging.
# [4] = tested on: P. aeruginosa PAO1 persister cells; experiment: Treatment of persister cells isolated from ciprofloxacin-treated biofilms (CFU); assay type: cell-based, Pseudomonas aeruginosa
# Protocol: (§1) To identify and isolate P. aeruginosa PAO1 persister cells, planktonic culture was grown to the stationary phase and the dose-dependent killing curve for ciprofloxacin (0-200 μg/ml) was investigated. […] Assessments were then performed on biofilms regrown from cells recovered after no treatment (“untreated biofilms”), cells recovered after e-scaffold treatment (“e-scaffold treated biofilm”), and “persister cells” that were isolated from biofilms treated with 200 μg/ml ciprofloxacin for 3.5 hours. The treated samples were washed with 0.9% NaCl and suspended in LB to isolate persister cells from ciprofloxacin-treated biofilms for subsequent experiments as described in more detail below.
# The total number of viable cells was determined for ciprofloxacin-treated and untreated biofilms using the modified drop-plate cell counting method. Remaining persister cells were then exposed to either 200 μg/ml ciprofloxacin or e-scaffold treatment for 6 hours. Final CFU values were then determined.
# [5] = tested on: P. aeruginosa PAO1 planktonic culture; experiment: Dose-dependent killing curve for ciprofloxacin, stationary phase planktonic culture; assay type: cell-based, Pseudomonas aeruginosa; conditions: 0-200 μg/ml, 200× of MIC
# Protocol: as §1
# [6] = tested on: P. aeruginosa PAO1 biofilms; experiment: Tobramycin susceptibility of P. aeruginosa PAO1 biofilms with or without e-scaffold (CFU); assay type: cell-based, Pseudomonas aeruginosa; conditions: biofilms regrown from persister cells, 10 μg/ml tobramycin, no e-scaffold
# Protocol: For the following experiments, 20 g/L (1×) Luria broth (LB) medium (Sigma-Aldrich, catalog #L3522) was used to grow P. aeruginosa PAO1 cultures overnight, and 1 g/L (0.05×) LB was used as the growth medium for biofilms. Tobramycin (Sigma Aldrich, catalog #T4014) and ciprofloxacin (Sigma Aldrich, catalog #17850) solutions were diluted in 1 g/L (0.05×) LB for antibiotic susceptibility experiments and persister cell isolation, respectively. Minimum inhibitory concentrations (MICs) were determined for both antibiotics following the Clinical and Laboratory Standards Institute (CLSI) protocol. Other compounds used include 3′-p-hydroxyphenyl fluorescein dye (Invitrogen, catalog #H36004), propidium iodide (Invitrogen, catalog #L-7012), thiourea (AK Scientific, Inc., catalog #S726), and H2O2 (VWR, Catalog #RC3819-16).
# Frozen stocks of P. aeruginosa PAO1 were cultured overnight in LB at 37° C. on a rotating table. For biofilm experiments, overnight culture was adjusted to OD600≈0.5 in LB and used as an inoculum. 2 ml of culture was used to inoculate sterile glass bottom petri dishes and allowed to form biofilms for 24 hours. Such one day-old biofilms were treated with e-scaffolds for 24 hours. Untreated and e-scaffold treated biofilm cells were then washed twice to remove loosely attached cells. Remaining cells were recovered for antibiotic susceptibility testing. […]
# [7] = tested on: P. aeruginosa PAO1 biofilms; conditions: general statement, no e-scaffold; cited from earlier work
compound,measurement,setting,value
"OO [H2O2, hydrogen peroxide]",reduction in Acinetobacter baumannii CFU,"[1]; 45 mM H2O2 in a single administration, vs control without H2O2",~3 log
same,reduction in bacterial counts,[1]; equivalent concentration of H2O2 delivered continuously over 24 hours,~2 log
same,HPF fluorescence (OH• formation),[2],increased fluorescence
same,cell morphology in SEM images,[3],membrane-compromised cells
O=C(O)c1cn(C2CC2)c2cc(N3CCNCC3)c(F)cc2c1=O [ciprofloxacin],change of final population of persister cells,[4]; additional 6 hours of 200 μg/ml ciprofloxacin treatment,did not change
same,share of total biofilm cells belonging to the persister population,[4]; biofilms treated with 200 μg/ml ciprofloxacin for 3.5 hours,about 0.31%
same,ciprofloxacin concentration above which the surviving subpopulation plateaus,[5],above 50 μg/ml
NC[C@H]1O[C@H](O[C@H]2[C@H](O)[C@@H](O[C@H]3O[C@H](CO)[C@@H](O)[C@H](N)[C@H]3O)[C@H](N)C[C@@H]2N)[C@H](N)C[C@@H]1O [tobramycin],reduction in viable cells,[6],1.2±0.16 log
same,tobramycin typically required for P. aeruginosa PAO1 biofilm treatment,[7],> 500 × of MIC
catalase,effect on biofilm,[1]; catalase itself (0.05 mg/ml),no significant effect
